{"source": "patent US20150202157A1", "about": "“COMPOSITIONS AND METHODS FOR ENHANCING NEURONAL PHOSPHORYLATION HOMEOSTASIS, AND MODULATING DYSFUNCTIONAL EXOCYTOSIS AND NEUROTRANSMITTER RELEASE” (Revalesio Corporation, priority 2014, published 2015)", "test_system": "squid giant synapse", "assay": "Electron microscopy of presynaptic terminal (synaptic vesicles at active zones)", "assay_type": "cell-based, squid (Loligo paelli)", "details": "treated squid following h-tau42 injection", "from_the_text": "Immediately following the electrophysiological study the ganglia were removed from the recording chamber, fixed by immersion in glutaraldehyde, postfixed in osmium tetroxide, stained in block with uranium acetate, dehydrated and embedded in resin (Embed 812, EM Sciences). Ultrathin sections were collected on Pioloform (Ted Pella, Redding, Calif.) and carbon-coated single sloth grids, and contrasted with uranyl acetate and lead citrate. Morphometry and quantitative analysis of the synaptic vesicles were performed with the in house program developed with LabVIEW (National Instruments, Ostin Tex.). […] Vesicle density at the synaptic active zones was determined as the number of vesicles per μm^2, on an average area of 0.8 μm^2 per active zone. CCV density was determined within the limits of the presynaptic terminal on an average terminal area of 3.3 μm^2.\nAt the end of the electrophysiological recordings the stellate ganglion was immediately removed from the recording chamber and fixed by immersion in glutaraldehyde. […] Morphometry and quantitative analysis of the synaptic vesicles were performed with the image J software (NIH, EUA). […] Synaptic vesicle density and the number of CCV at the synaptic active zones were determined as the number of vesicles per μm2. […]", "data": [{"smiles": "O=C(O)/C=C\\C(=O)O.OC1CN(CCCOCCc2ccc3sccc3c2)C1", "note": "[T817MA]", "values": [{"measurement": "reduction in number of docked vesicles following h-tau42 injection", "result": "not seen"}]}]}
